# Experimental data reported in ChEMBL document CHEMBL1201862, “PubChem BioAssay data set” (2004).
# The source made the active and inactive calls.
# Experiments:
# Cytochrome P450 2C19 = Cytochrome P450 2C19 (Homo sapiens, UniProt P33261); test: Cytochrome panel assay with activity outcomes. Panel member name: p450-cyp2c19 Compounds with AC50 equal or less than 10 uM are considered active; assay type: functional; settings: read-out: AC50
# Cytochrome P450 1A2 = target: T1, Cytochrome P450 1A2 (Homo sapiens, UniProt P05177);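 also: PubChem cytochrome P450 panel assay, CYP1A2 panel member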
# T1 sequence (P05177 whole entry): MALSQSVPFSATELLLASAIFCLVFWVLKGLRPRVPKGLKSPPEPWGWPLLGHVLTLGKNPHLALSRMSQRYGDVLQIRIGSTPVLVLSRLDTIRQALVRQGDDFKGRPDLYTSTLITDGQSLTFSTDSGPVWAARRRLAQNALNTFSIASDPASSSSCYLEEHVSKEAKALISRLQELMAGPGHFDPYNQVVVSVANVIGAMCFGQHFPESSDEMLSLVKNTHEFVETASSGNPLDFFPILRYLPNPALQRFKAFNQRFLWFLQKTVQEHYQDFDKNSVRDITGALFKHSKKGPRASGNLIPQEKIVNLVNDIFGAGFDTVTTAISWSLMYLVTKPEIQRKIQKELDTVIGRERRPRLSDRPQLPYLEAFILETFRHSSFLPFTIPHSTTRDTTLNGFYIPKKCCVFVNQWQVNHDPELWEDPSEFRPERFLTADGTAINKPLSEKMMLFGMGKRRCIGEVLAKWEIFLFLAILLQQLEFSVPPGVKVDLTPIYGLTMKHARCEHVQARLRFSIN
# [1] = target: T2, Heat shock factor protein 1 (Mus musculus, UniProt P38532); test: enhancement of HSF1-driven luciferase signal – cell-based, NIH3T3, luminescence, dose retest, confirmation (AID 435004); assay type: functional;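 also: stress induced by proteasome inhibitor MG132 added 30 min after compound; luciferase reporter driven by HSF1 response element in NIH3T3 cells; actives raise luminescence as potentiators of the MG132 stress response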
# T2 sequence (P38532 whole entry): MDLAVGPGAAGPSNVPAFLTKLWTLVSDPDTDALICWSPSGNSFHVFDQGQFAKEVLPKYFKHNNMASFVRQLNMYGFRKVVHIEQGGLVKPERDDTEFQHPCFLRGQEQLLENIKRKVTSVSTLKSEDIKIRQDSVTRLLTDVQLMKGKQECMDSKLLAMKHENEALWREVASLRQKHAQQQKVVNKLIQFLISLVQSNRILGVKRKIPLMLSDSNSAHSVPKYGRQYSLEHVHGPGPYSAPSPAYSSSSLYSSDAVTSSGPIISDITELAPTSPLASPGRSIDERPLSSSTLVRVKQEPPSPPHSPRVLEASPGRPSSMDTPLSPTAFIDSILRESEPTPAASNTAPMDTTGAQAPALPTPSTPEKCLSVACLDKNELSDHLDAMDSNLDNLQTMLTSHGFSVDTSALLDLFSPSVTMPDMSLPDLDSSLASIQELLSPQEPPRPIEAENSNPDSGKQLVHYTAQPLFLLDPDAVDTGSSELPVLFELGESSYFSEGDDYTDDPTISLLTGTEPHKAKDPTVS
# [2] = target: T3, Rac GTPase-activating protein 1 (Homo sapiens, UniProt Q9H0H5); test: blockers of MgcRacGAP-driven Rac1 GTP hydrolysis – biochemical, ADP Hunter fluorescence, primary and confirmatory, confirmation (AID 624330); assay type: functional
# T3 sequence (Q9H0H5 whole entry): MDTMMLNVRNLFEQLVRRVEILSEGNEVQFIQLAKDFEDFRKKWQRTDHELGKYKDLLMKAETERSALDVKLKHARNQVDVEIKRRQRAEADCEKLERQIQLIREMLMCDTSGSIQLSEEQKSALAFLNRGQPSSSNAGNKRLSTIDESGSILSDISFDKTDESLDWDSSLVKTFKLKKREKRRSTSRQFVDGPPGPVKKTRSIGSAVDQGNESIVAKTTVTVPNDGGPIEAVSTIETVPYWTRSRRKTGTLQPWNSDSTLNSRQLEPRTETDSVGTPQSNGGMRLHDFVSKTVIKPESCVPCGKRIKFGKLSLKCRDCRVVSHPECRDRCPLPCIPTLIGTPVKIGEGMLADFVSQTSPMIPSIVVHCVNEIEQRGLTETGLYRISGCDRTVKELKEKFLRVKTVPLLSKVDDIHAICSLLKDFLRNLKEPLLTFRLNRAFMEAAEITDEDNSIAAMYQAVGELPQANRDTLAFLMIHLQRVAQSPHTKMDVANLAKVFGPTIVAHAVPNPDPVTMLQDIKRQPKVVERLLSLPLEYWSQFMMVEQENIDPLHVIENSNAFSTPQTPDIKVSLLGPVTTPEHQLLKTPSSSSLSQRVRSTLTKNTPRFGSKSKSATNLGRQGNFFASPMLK
# [3] = Trypanosoma cruzi growth suppression in host cells – NIH3T3 host cells, beta-gal luminescence, confirmation (AID 2044); assay type: functional, cell-based;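 also: intracellular parasites grown in NIH/3T3 mouse fibroblasts as host cells; luminescent beta-galactosidase reporter signal from transgenic T. cruzi replicating inside host cells; inhibitors lower the luminescence signal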
# [4] = NIH3T3 cell viability loss – ATP luminescence, mouse fibroblasts, counter-screen, dose response (AID 2010); assay type: functional, cell-based;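 also: cells exposed to compound for about 90 hours before reading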
# Cytochrome P450 2D6 = Cytochrome P450 2D6 (Homo sapiens, UniProt P10635);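 also: CYP2D6 member of a cytochrome P450 panel assay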
# Cytochrome P450 2C9 = Cytochrome P450 2C9 (Homo sapiens, UniProt P11712)
# [5] = viability of uninfected HEp-2 cells – cell-based, HTS, cytotoxicity control for RSV inhibitor project, dose response (AID 2410); assay type: functional; settings: human respiratory syncytial virus
# Sequence of Cytochrome P450 2C19 (P33261 whole entry): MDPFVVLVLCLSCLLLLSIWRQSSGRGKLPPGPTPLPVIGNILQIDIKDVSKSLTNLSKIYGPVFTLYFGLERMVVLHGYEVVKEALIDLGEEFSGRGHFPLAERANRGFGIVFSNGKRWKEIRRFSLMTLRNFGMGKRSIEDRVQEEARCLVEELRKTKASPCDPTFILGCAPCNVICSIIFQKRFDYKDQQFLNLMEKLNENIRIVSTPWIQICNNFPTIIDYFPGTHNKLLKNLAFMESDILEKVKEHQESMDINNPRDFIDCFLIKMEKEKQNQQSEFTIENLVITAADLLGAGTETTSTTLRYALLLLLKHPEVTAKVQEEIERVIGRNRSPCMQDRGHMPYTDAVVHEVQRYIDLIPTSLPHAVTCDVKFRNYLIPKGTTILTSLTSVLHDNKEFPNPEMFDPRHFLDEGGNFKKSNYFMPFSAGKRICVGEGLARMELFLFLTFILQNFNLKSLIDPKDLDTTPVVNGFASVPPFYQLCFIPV
# Sequence of Cytochrome P450 2D6 (P10635 whole entry): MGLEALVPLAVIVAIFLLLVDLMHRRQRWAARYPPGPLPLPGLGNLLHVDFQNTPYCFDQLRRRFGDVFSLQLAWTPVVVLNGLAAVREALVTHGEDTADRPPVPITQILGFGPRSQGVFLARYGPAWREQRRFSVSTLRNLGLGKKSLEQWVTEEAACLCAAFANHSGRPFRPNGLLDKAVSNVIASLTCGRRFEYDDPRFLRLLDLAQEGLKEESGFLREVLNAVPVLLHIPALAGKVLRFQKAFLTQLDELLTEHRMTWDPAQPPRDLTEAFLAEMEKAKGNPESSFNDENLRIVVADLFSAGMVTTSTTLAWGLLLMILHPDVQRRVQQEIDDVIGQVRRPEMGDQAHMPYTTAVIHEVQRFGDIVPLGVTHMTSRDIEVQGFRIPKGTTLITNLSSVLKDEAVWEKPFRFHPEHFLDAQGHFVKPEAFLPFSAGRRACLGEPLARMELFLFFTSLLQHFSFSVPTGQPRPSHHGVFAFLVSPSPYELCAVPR
# Sequence of Cytochrome P450 2C9 (P11712 whole entry): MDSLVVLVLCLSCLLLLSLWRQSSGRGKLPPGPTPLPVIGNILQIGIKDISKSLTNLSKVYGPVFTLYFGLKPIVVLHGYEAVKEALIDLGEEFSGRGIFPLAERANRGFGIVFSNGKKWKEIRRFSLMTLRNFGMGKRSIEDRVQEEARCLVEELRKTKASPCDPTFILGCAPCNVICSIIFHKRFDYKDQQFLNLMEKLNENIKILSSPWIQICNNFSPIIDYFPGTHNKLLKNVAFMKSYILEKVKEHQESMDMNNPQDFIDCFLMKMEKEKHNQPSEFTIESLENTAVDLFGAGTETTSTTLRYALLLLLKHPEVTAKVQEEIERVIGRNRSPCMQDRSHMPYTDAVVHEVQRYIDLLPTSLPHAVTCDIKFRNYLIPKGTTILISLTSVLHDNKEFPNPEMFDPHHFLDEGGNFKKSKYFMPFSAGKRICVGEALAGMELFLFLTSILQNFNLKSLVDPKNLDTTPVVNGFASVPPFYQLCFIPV
SMILES,EC50 [1],IC50 [2],further results
NC1=NC2(CCCCCC2)n2c(nc3ccccc32)N1,,,AC50 (Cytochrome P450 2C19): 22.4 µM (inconclusive); AC50 (Cytochrome P450 1A2): 28.2 µM (inconclusive)
Nc1cc[n+](CC(=O)Nc2ccccc2)cc1,> 260 µM (inactive),,
Cn1cnc([N+](=O)[O-])c1Sc1nc(N)nc2c1ncn2[C@H]1C[C@H](O)[C@@H](CO)O1,,,AC50 (Cytochrome P450 1A2): 6.31 µM (inconclusive)
CC(C)c1nnc(SCc2ccc(CSc3nnc(C(C)C)n3N)cc2)n1N,> 260 µM (inactive),,
CCCCCNCc1cccc(Br)c1,,,AC50 (Cytochrome P450 1A2): 15.8 µM (inconclusive)
O=[N+]([O-])c1ccc(N2CCN(c3ccc(O)cc3)CC2)c(Cl)c1,,45 µM (active),
CCOC(=O)C1(CCOc2ccccc2)CCN(Cc2cc(OC)c3c(c2)OCO3)CC1,> 260 µM (inactive),,EC50 [3]: 2.65 µM (active); EC50 [4]: > 60 µM (not active)
CCOC(=O)N1CCN(C(=O)CCn2nc(-c3ccccc3)ccc2=O)CC1,,,AC50 (Cytochrome P450 1A2): 15.8 µM (inconclusive)
COc1ccc(Br)cc1CN(C)CC(=O)NCCc1ccccc1,,95.5 µM (active),
COc1ccc(NC(=O)N2CCC3(CC2)CCN(C(=O)c2ccco2)CC3)cc1,,,AC50 (Cytochrome P450 1A2): 20 µM (inconclusive)
C[C@@]12C=CC(=O)C=C1CC[C@@H]1C2=CC[C@]2(C)[C@@H]1CC[C@H]2C(=O)CN1CCN(c2cc(N3CCCC3)nc(N3CCCC3)n2)CC1,,,AC50 (Cytochrome P450 2D6): 25.1 µM (inconclusive); AC50 (Cytochrome P450 1A2): 12.6 µM (inconclusive); AC50 (Cytochrome P450 2C9): 12.6 µM (inconclusive)
COC(=O)C1CC1C(NC(=O)[C@@H]1CCCN1)c1ccccc1 (some centres not stated),,,AC50 (Cytochrome P450 2C19): 39.8 µM (inconclusive); AC50 (Cytochrome P450 2D6): 20 µM (inconclusive); AC50 (Cytochrome P450 1A2): 15.8 µM (inconclusive)
CCOC(=O)CSC1=NC(=O)/C(=C\c2ccc(Cl)cc2)S1,2.74 µM (active),,AC50 (Cytochrome P450 2C19): 3.16 µM (inconclusive); CC50 [5]: 18.9 µM (active)
Cc1nn(Cc2ccccc2Cl)c(C)c1NC(=O)CCCn1nc([N+](=O)[O-])c(Cl)c1C,> 260 µM (inactive),,EC50 [3]: 0.514 µM (active); EC50 [4]: > 60 µM (not active)
O=[N+]([O-])c1ccc(S(=O)(=O)N(Cc2cccnc2)Cc2cc3ccccc3nc2O)cc1,> 260 µM (inactive),,EC50 [3]: 1.84 µM (active); EC50 [4]: > 60 µM (not active)
Cc1cc(-c2ccccc2)nc2c(Br)c(=O)[nH]n12,,210 µM (active),
Oc1ccc(NC(S)=Nc2ccc(F)cc2)cc1,,67.5 µM (active),
CN1CCN(Cc2coc3c(Cl)cc(Cl)cc3c2=O)CC1,,79 µM (active),
C=CCNC1=C(C(=O)CCC(=O)OC)C(=O)CC(C)(C)C1,,,AC50 (Cytochrome P450 1A2): 2.51 µM (inconclusive)
O=C(O)C1CCCCC1C(=O)Nc1ccc(S(=O)(=O)N2CCOCC2)cc1 (configuration not stated),,150 µM (active),
Cc1ncc2c(c1O)COP(=O)(O)OC2,,,AC50 (Cytochrome P450 2C19): 5.01 µM (inconclusive); AC50 (Cytochrome P450 1A2): 31.6 µM (inconclusive)

# More lines, main results first:
EC50 [1],IC50 [2],SMILES,further results
> 260 µM (inactive),,CC12CN(C(S)=Nc3ccccc3)CC(C)(CN(C(S)=Nc3ccccc3)C1)C2=O,
203 µM (active),,COc1cc(OC)c(N(C)S(=O)(=O)c2cccc(C(=O)Nc3nnc(C4CC4)s3)c2)cc1Cl,
> 260 µM (inactive),,COc1ccc(CN2CCNC(=O)C2CC(=O)NCC2CCOCC2)cc1C (configuration not stated),
,169 µM (active),C=CCN(CC=C)C(=O)C1CCN(Cc2ccc(OCc3ccccc3)cc2)CC1,
> 260 µM (inactive),,O=C(CCN1C(=O)c2ccccc2C1=O)Nc1sc2c(c1C(=O)NCC1CCCO1)CCC2 (configuration not stated),
,123 µM (active),Cc1ccc(NCc2ccco2)cc1C,
> 260 µM (inactive),,CCS(=O)(=O)N1CCc2nc(-c3ccccc3)sc2C1,
,115 µM (active),CCN1CCCC1CNCC(=O)Nc1ccc(OC(F)(F)F)cc1 (configuration not stated),
> 260 µM (inactive),,Cc1ccccc1-c1nnc(CS(=O)(=O)c2ccccc2)o1,
,53.4 µM (active),COc1ccc(Nc2ccc3ccccc3c2)cc1,
,9.78 µM (active),O=C1NC(=S)NC1=Cc1ccc(O)cc1,
,199 µM (active),C/N=C\c1cc(-c2ccccc2)sc1O,
